The source of these data is patent publication US20250281497A1, “FUSED AMINO PYRIMIDINE COMPOUNDS FOR TREATMENT OF SEIZURE DISORDERS” (Ovid Therapeutics Inc., priority 2024, published 2025).

Assay [1] relates to KA induced SE. Put plainly: Kainic acid (KA) induced SE, EEG recording, pretreatment. In kind it is in vivo, mice. Particulars: mice pretreated with vehicle; DZ 10 mg/kg IP 2h after KA; pre 4.2±2.4×10^−6. From the text: This model was chosen due to the similarities with patients undergoing SE, as KA-induced seizures become refractory to benzodiazepines (BDZs) within minutes (Betjemann and Lowenstein, Lancet Neurol 14, 615-624 (2015); Crawshaw and Cock, (2020a) [Seizure: Eur. J. Epilep. 75 (2020) 145-152] Seizure 80, 282; Lee et at, 2022, supra; Reddy and Kuruba, Int J Mol Sci 14, 18284-18318 (2013)).
(§1) EEG recordings and analysis. WT C57Bl/6J adult male mice (12 weeks) were anesthetized with isofluorane and implanted with EEG/EMG electrodes and allowed to recover for 7 days prior to experimentation. […] 2h following KA administration mice were injected with a saturating concentration of diazepam (DZ) 10 mg/kg (IP) and recordings were extended for a further 60 min. […] LabChart 8 software was used for data analysis. Epileptiform activity was identified by changes in the amplitude of electrographic activity characterized by consistent changes in the power of the Fast Fourier transform (FFT) of the EEG and abnormal activity characterized by periods of rhythmic spiking lasting longer than 30s (Moore et al., 2017, supra; Silayeva et al., 2015, supra; Sivakumaran et al., J. Neurosci. 35, 8291-8296 (2015)).
To provide quantitative insights on the effects of KA, raw EEG recordings were subject to Fast-Fourier transformation (8K FFT size, Hann (cosine-bell), 87.50% window overlap) for frequencies between 0-100 Hz 2h after KA injection (Lee et at, 2022, supra).
30 or 60 min later mice were injected with KA (20 mg/kg) and 2h later with DZ as detailed above.

Assay [2] deals with KA induced SE. Put plainly: KA induced ongoing SE, EEG recording, treatment 2h after KA. It is filed as in vivo, mice. As to the method:
as §1
To evaluate the potential of KCC2 activators to terminate ongoing SE, the KA model described above was employed. Mice were injected with KA (20 mg/Kg; IP). […] Spectral data were then subjected to FFT and the total EEG power between 1-100 Hz of the 2h following KA treatment (pre-drug) and 30 min following their injection (post-drug) were compared (FIG. 6B). In mice treated with DZ alone variable effects were observed, from large increases to modest reductions in EEG power, but these effects were not significant (FIG. 6C; pre=1.1±0.2×10^−6, post=4.4±7.4×10^−7 μV^2, p=0.214, n=13-14 mice). […] The latency of the treatments to modify EEG power was examined by measuring the time taken for this parameter to be reduced to 50% (FIG. 6E). […] Finally in mice treated with DZ alone 62% were insensitive to the effects of this agent on EEG power.

As to `CN1C(=O)CN=C(c2ccccc2)c2cc(Cl)ccc21` [DZ, diazepam], the “total EEG power post DZ” value in assay [1] is reported as 2.9±2.7×10^−6 μV^2. In assay [2] (30 min after injection, given 2h after KA, DZ 10 mg/kg, Compound A 50 mg/Kg IP), the “total EEG power post-drug” value was 4.4±7.4×10^−7 μV^2. The “mice insensitive to DZ effects on EEG power” value in assay [2] (treatment 2h after KA) stood at 62%.
